Here are results for 8 cell lines from the supplement of paper PMC10307832.

Holding throughout (assay): relative viability (nuclei count vs DMSO), 5 days (fraction); higher = more cells survive
Compound in the assay “XMD13-2 + Navitoclax”: C1CC1C(=O)NC2=NNC3=C2C=CC(=C3)C4=CC(=CC=C4)C(=O)NC5CC5 [XMD13-2] + CC1(C)CCC(c2ccc(Cl)cc2)=C(CN2CCN(c3ccc(C(=O)NS(=O)(=O)c4ccc(N[C@H](CCN5CCOCC5)CSc5ccccc5)c(S(=O)(=O)C(F)(F)F)c4)cc3)CC2)C1 [Navitoclax] (partner 0.5 µM)
The method in brief: (§1)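 Relative viability divides the nuclei count in treated wells by that in vehicle wells. Lung cancer cell lines were seeded in 1536-well plates, dosed by pin tool the next day, and fixed and stained after 5 days in one step with final 0.05% Triton X-100, 1% formaldehyde and 1 ug/ml Hoechst. Dosing was a single drug or a fixed anchor-drug dose plus five library-drug doses (not always all listed) in √10 steps, and values are medians of duplicate plates imaged at 4×.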

Compound in the assay “XMD13-2 + OSI-027”: C1CC1C(=O)NC2=NNC3=C2C=CC(=C3)C4=CC(=CC=C4)C(=O)NC5CC5 [XMD13-2] + COc1cccc2cc(-c3nc([C@H]4CC[C@H](C(=O)O)CC4)n4ncnc(N)c34)[nH]c12 [OSI-027] (partner 0.5 µM)
The method in brief:
as §1

Compound in the assay “ALW-II-49-7 + Alpelisib”: Cc1ccc(C(=O)Nc2cccc(C(F)(F)F)c2)cc1Nc1cncc(C(N)=O)c1 [ALW-II-49-7] + Cc1nc(NC(=O)N2CCC[C@H]2C(N)=O)sc1-c1ccnc(C(C)(C)C(F)(F)F)c1 [Alpelisib] (partner 2 µM)
The method in brief: as §1

Compound in the assay “ALW-II-49-7 + Pemetrexed”: Cc1ccc(C(=O)Nc2cccc(C(F)(F)F)c2)cc1Nc1cncc(C(N)=O)c1 [ALW-II-49-7] + Nc1nc2[nH]cc(CCc3ccc(C(=O)N[C@@H](CCC(=O)O)C(=O)O)cc3)c2c(=O)[nH]1 [Pemetrexed] (partner 0.2 µM)
The method in brief:
as §1

As to HCC-15, the relative viability with XMD13-2 + Navitoclax (first compound 0.05 µM) was determined as 0.792; with XMD13-2 + Navitoclax (first compound 0.1581 µM), 0.661; in the assay with XMD13-2 + Navitoclax (first compound 0.5 µM), 0.704; with XMD13-2 + Navitoclax (first compound 1.581 µM) it was 0.725; with XMD13-2 + Navitoclax (first compound 5 µM), 0.535; in the assay with XMD13-2 + OSI-027 (first compound 0.05 µM), 0.765. The relative viability with XMD13-2 + OSI-027 (first compound 0.1581 µM) is 0.723; in the assay with XMD13-2 + OSI-027 (first compound 0.5 µM), 0.733; in the assay with XMD13-2 + OSI-027 (first compound 1.581 µM) it was 0.546; with XMD13-2 + OSI-027 (first compound 5 µM) it was 0.484; with ALW-II-49-7 + Alpelisib (first compound 0.08 µM), 0.901; with ALW-II-49-7 + Alpelisib (first compound 0.253 µM) it was 0.931. The relative viability with ALW-II-49-7 + Alpelisib (first compound 0.8 µM) is 0.949; with ALW-II-49-7 + Alpelisib (first compound 2.53 µM) it was 0.907; in the assay with ALW-II-49-7 + Alpelisib (first compound 8 µM) it was 0.845; with ALW-II-49-7 + Pemetrexed (first compound 0.08 µM), 0.214; with ALW-II-49-7 + Pemetrexed (first compound 0.253 µM), 0.227; in the assay with ALW-II-49-7 + Pemetrexed (first compound 0.8 µM), 0.228. Further, the relative viability with ALW-II-49-7 + Pemetrexed (first compound 2.53 µM) is 0.227; with ALW-II-49-7 + Pemetrexed (first compound 8 µM), 0.241.

Regarding HCC-44, the relative viability with XMD13-2 + Navitoclax (first compound 0.05 µM) is 1.01; with XMD13-2 + Navitoclax (first compound 0.1581 µM), 1.03; with XMD13-2 + Navitoclax (first compound 0.5 µM) it was 1.12; in the assay with XMD13-2 + Navitoclax (first compound 1.581 µM), 0.949; with XMD13-2 + Navitoclax (first compound 5 µM) it was 1; with XMD13-2 + OSI-027 (first compound 0.05 µM), 0.565. Also, the relative viability with XMD13-2 + OSI-027 (first compound 0.1581 µM) worked out at 0.57; in the assay with XMD13-2 + OSI-027 (first compound 0.5 µM), 0.507; with XMD13-2 + OSI-027 (first compound 1.581 µM) it was 0.381; in the assay with XMD13-2 + OSI-027 (first compound 5 µM) it was 0.438; with ALW-II-49-7 + Alpelisib (first compound 0.08 µM) it was 0.796; with ALW-II-49-7 + Alpelisib (first compound 0.253 µM), 0.854. For the same cell line, the relative viability with ALW-II-49-7 + Alpelisib (first compound 0.8 µM) worked out at 0.887; with ALW-II-49-7 + Alpelisib (first compound 2.53 µM), 0.752; in the assay with ALW-II-49-7 + Alpelisib (first compound 8 µM) it was 0.592; with ALW-II-49-7 + Pemetrexed (first compound 0.08 µM), 0.683; in the assay with ALW-II-49-7 + Pemetrexed (first compound 0.253 µM) it was 0.662; with ALW-II-49-7 + Pemetrexed (first compound 0.8 µM), 0.617. Besides, the figures for the relative viability in the assay with ALW-II-49-7 + Pemetrexed (first compound 2.53 µM) and with ALW-II-49-7 + Pemetrexed (first compound 8 µM) were 0.664 and 0.673, respectively.

With HCC-78, the relative viability stood at 0.851 with XMD13-2 + Navitoclax (first compound 0.05 µM); 0.641 with XMD13-2 + Navitoclax (first compound 0.1581 µM); 0.817 in the assay with XMD13-2 + Navitoclax (first compound 0.5 µM); 0.582 with XMD13-2 + Navitoclax (first compound 1.581 µM); 0.671 with XMD13-2 + Navitoclax (first compound 5 µM); 0.432 with XMD13-2 + OSI-027 (first compound 0.05 µM). Also, the relative viability was found to be 0.394 with XMD13-2 + OSI-027 (first compound 0.1581 µM); 0.317 in the assay with XMD13-2 + OSI-027 (first compound 0.5 µM); 0.38 with XMD13-2 + OSI-027 (first compound 1.581 µM); 0.345 with XMD13-2 + OSI-027 (first compound 5 µM); 0.275 with ALW-II-49-7 + Alpelisib (first compound 0.08 µM); 0.309 with ALW-II-49-7 + Alpelisib (first compound 0.253 µM). In addition, the relative viability was 0.351 in the assay with ALW-II-49-7 + Alpelisib (first compound 0.8 µM); 0.325 with ALW-II-49-7 + Alpelisib (first compound 2.53 µM); 0.337 with ALW-II-49-7 + Alpelisib (first compound 8 µM); 0.888 with ALW-II-49-7 + Pemetrexed (first compound 0.08 µM); 0.846 in the assay with ALW-II-49-7 + Pemetrexed (first compound 0.253 µM); 0.91 in the assay with ALW-II-49-7 + Pemetrexed (first compound 0.8 µM). The relative viability with ALW-II-49-7 + Pemetrexed (first compound 2.53 µM) stood at 0.884; with ALW-II-49-7 + Pemetrexed (first compound 8 µM) it was 0.891.

In the case of HCC-366, the relative viability was found to be 1.12 with XMD13-2 + Navitoclax (first compound 0.05 µM); 1.07 in the assay with XMD13-2 + Navitoclax (first compound 0.1581 µM); 1.13 in the assay with XMD13-2 + Navitoclax (first compound 0.5 µM); 1.06 with XMD13-2 + Navitoclax (first compound 1.581 µM); 1.19 with XMD13-2 + Navitoclax (first compound 5 µM); 1.02 with XMD13-2 + OSI-027 (first compound 0.05 µM). The relative viability is 0.598 with XMD13-2 + OSI-027 (first compound 0.1581 µM); 1.15 in the assay with XMD13-2 + OSI-027 (first compound 0.5 µM); 0.888 with XMD13-2 + OSI-027 (first compound 1.581 µM); 0.983 in the assay with XMD13-2 + OSI-027 (first compound 5 µM); 0.392 in the assay with ALW-II-49-7 + Alpelisib (first compound 0.08 µM); 0.605 in the assay with ALW-II-49-7 + Alpelisib (first compound 0.253 µM). The relative viability with ALW-II-49-7 + Alpelisib (first compound 0.8 µM) was 0.417; in the assay with ALW-II-49-7 + Alpelisib (first compound 2.53 µM) it was 0.356; with ALW-II-49-7 + Alpelisib (first compound 8 µM), 0.579; in the assay with ALW-II-49-7 + Pemetrexed (first compound 0.08 µM), 0.195; with ALW-II-49-7 + Pemetrexed (first compound 0.253 µM), 0.188; with ALW-II-49-7 + Pemetrexed (first compound 0.8 µM) it was 0.155. Moreover, the relative viability with ALW-II-49-7 + Pemetrexed (first compound 2.53 µM) stood at 0.195; with ALW-II-49-7 + Pemetrexed (first compound 8 µM), 0.131.

For the cell line IA-LM, the relative viability with XMD13-2 + Navitoclax (first compound 0.05 µM) came to 0.821; in the assay with XMD13-2 + Navitoclax (first compound 0.1581 µM), 0.867; with XMD13-2 + Navitoclax (first compound 0.5 µM) it was 0.724; in the assay with XMD13-2 + Navitoclax (first compound 1.581 µM), 0.769; in the assay with XMD13-2 + Navitoclax (first compound 5 µM) it was 0.457; with ALW-II-49-7 + Alpelisib (first compound 0.08 µM), 0.768. The relative viability was 0.523 with ALW-II-49-7 + Alpelisib (first compound 0.253 µM), 0.653 in the assay with ALW-II-49-7 + Alpelisib (first compound 0.8 µM), 0.321 with ALW-II-49-7 + Alpelisib (first compound 2.53 µM) and 0.112 with ALW-II-49-7 + Alpelisib (first compound 8 µM).

Regarding LCLC-103H, the relative viability with XMD13-2 + OSI-027 (first compound 0.05 µM) worked out at 0.588; with XMD13-2 + OSI-027 (first compound 0.1581 µM) it was 0.497; with XMD13-2 + OSI-027 (first compound 0.5 µM), 0.47; with XMD13-2 + OSI-027 (first compound 1.581 µM) it was 0.509; in the assay with XMD13-2 + OSI-027 (first compound 5 µM), 0.506; in the assay with ALW-II-49-7 + Alpelisib (first compound 0.08 µM), 0.933. For the same cell line, the relative viability was determined as 0.968 with ALW-II-49-7 + Alpelisib (first compound 0.253 µM); 0.993 with ALW-II-49-7 + Alpelisib (first compound 0.8 µM); 1.14 with ALW-II-49-7 + Alpelisib (first compound 2.53 µM); 0.972 with ALW-II-49-7 + Alpelisib (first compound 8 µM); 0.533 with ALW-II-49-7 + Pemetrexed (first compound 0.08 µM); 0.502 in the assay with ALW-II-49-7 + Pemetrexed (first compound 0.253 µM). The relative viability came to 0.477 in the assay with ALW-II-49-7 + Pemetrexed (first compound 0.8 µM), 0.462 with ALW-II-49-7 + Pemetrexed (first compound 2.53 µM) and 0.419 with ALW-II-49-7 + Pemetrexed (first compound 8 µM).

As for NCI-H358, the relative viability with XMD13-2 + OSI-027 (first compound 0.05 µM) turned out to be 0.97; with XMD13-2 + OSI-027 (first compound 0.1581 µM) it was 0.686; with XMD13-2 + OSI-027 (first compound 0.5 µM) it was 0.848; with XMD13-2 + OSI-027 (first compound 1.581 µM), 0.726; with XMD13-2 + OSI-027 (first compound 5 µM), 0.442; with ALW-II-49-7 + Alpelisib (first compound 0.08 µM), 0.718. For the same cell line, the relative viability was 0.802 with ALW-II-49-7 + Alpelisib (first compound 0.253 µM); 0.925 in the assay with ALW-II-49-7 + Alpelisib (first compound 0.8 µM); 0.965 in the assay with ALW-II-49-7 + Alpelisib (first compound 2.53 µM); 0.902 in the assay with ALW-II-49-7 + Alpelisib (first compound 8 µM); 0.163 with ALW-II-49-7 + Pemetrexed (first compound 0.08 µM); 0.181 with ALW-II-49-7 + Pemetrexed (first compound 0.253 µM). For the same cell line, the relative viability with ALW-II-49-7 + Pemetrexed (first compound 0.8 µM) worked out at 0.189; with ALW-II-49-7 + Pemetrexed (first compound 2.53 µM) it was 0.148; with ALW-II-49-7 + Pemetrexed (first compound 8 µM) it was 0.155.

As for NCI-H522, the relative viability in the assay with XMD13-2 + OSI-027 (first compound 0.05 µM) worked out at 0.71; with XMD13-2 + OSI-027 (first compound 0.1581 µM), 0.692; with XMD13-2 + OSI-027 (first compound 0.5 µM), 0.742; in the assay with XMD13-2 + OSI-027 (first compound 1.581 µM) it was 0.701; with XMD13-2 + OSI-027 (first compound 5 µM), 0.658; with ALW-II-49-7 + Pemetrexed (first compound 0.08 µM) it was 0.909. Further, the relative viability with ALW-II-49-7 + Pemetrexed (first compound 0.253 µM) worked out at 0.874; with ALW-II-49-7 + Pemetrexed (first compound 0.8 µM), 0.958; with ALW-II-49-7 + Pemetrexed (first compound 2.53 µM) it was 1.07; with ALW-II-49-7 + Pemetrexed (first compound 8 µM) it was 1.01.
